Measured values taken from patent US11753411B2, “Substituted pyrazolo[1,5-a]pyrimidines as TYK2 pseudokinase ligands” (Ventyx Biosciences, Inc., priority 2019, dated 2023).
Read-outs that look alike come from different tables or passages of the source.

Assays:
Hepatocyte stability = format: in vitro ADME, human; details: for half-life at 1 μM: human, Table 3 of Example 15: 1 μM test compound, 0.5 million cells/mL hepatocytes, 37° C.
Protocol: Metabolic stability of compounds can be evaluated using human, rat, mouse, or other animal hepatocytes to predict intrinsic clearance. Human LiverPool™ 20-donor and animal cryopreserved hepatocytes were obtained from BioreclamationIVT.
Cryopreserved hepatocytes were removed from a liquid nitrogen tank and thawed in a 37° C. water bath. As soon as the cells pull away from the vial wall, they were decanted into 48 mL of warm HT medium. Cells were centrifuged for four minutes at 420 rpm (50 g). After removing the supernatant, the pellet was re-suspended in warm DMEM medium. Cell density was counted by a hemacytometer.
The assay was carried out in 96-well microtiter plates. Compound 5 was incubated for 0, 60, 120, and 180 minutes at 37° C. with hepatocytes. Reaction mixtures (50 μL) contain a final concentration of 1 μM test compound, 0.5 million cells/mL hepatocytes in the DMEM medium. At each of the time points (for example, 0, 1, 2, and 3 hours), 200 μL of quench solution (100% acetonitrile with 0.1% formic acid) with internal standard was transferred to each well. Midazolam was included as a positive control to verify assay performance. Plates were sealed and centrifuged at 4° C. for 15 minutes at 4000 rpm. The supernatant was transferred to fresh plates for LC/MS/MS analysis.
All samples were analyzed on LC/MS/MS using an AB Sciex API 4000 instrument, coupled to a Shimadzu LC-20AD LC Pump system. Analytical samples were separated using a Waters Atlantis T3 dC18 reverse phase HPLC column (20 mm×2.1 mm) at a flow rate of […]. The mobile phase consists of 0.1% formic acid in water (solvent A) and 0.1% formic acid in 100% acetonitrile (solvent B).
The extent of metabolism was calculated as the disappearance of the test compound, compared to the 0-min control reaction incubations. Initial rates are calculated for the compound concentration and used to determine t½ values and subsequently, the intrinsic clearance, CLint=(0.693)(1/t½ (min))(mL incubation/million cells).

IFN-a/Jak1 Tyk2 = test: Co-stimulation assay in lysed whole blood: IFNa (JAK1/TYK2) stimulated STAT1 phosphorylation; format: cell-based; details: Homo sapiens, 20 min, 100 ng/mL IFNa (with 10 ng/mL GM-CSF), pSTAT by flow cytometry
Method in brief: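 Lysed human whole blood (RBC-lysed, resuspended in cRPMI) pre-incubated with compound 1 h at 37 °C, then stimulated 20 min with IFNa 100 ng/mL plus GM-CSF 10 ng/mL (final). Fixed, permeabilised, stained for pSTAT1 (PE) and pSTAT5 (AF488); flow cytometry read-out, ≥5,000–10,000 cells acquired.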

[1] = Rat pharmacokinetics (PK); format: in vivo; details: IV group and PO group, route of the Cmax not given, urea versus corresponding amide
Protocol: Rat PK experiments were performed with an IV group and PO group included, with 3 rats per group. The formulation was solution for IV group and either solution or suspension formulation for the oral group(s). Plasma samples were harvested with K2EDTA as anticoagulant at 0.08, 0.25, 0.5, 1, 2, 4, 8, 12 and 24 hours for the IV group and at 0.25, 0.5, 1, 2, 4, 6, 8, 12 and 24 hours for the PO group, and analyzed by fit for purpose LC-MS/MS method. Non-compartmental analysis module in Phoenix WinNonlin® (Version 8.0) was used to assess the pharmacokinetic parameters. Maximum concentration (Cmax) were taken from the observed values.

[2] = Human liver microsome stability assay; format: in vitro ADME; details: 0.5 mg/mL human liver microsomes, 37° C., pH 7.4; urea versus corresponding amide
Protocol: The microsome stability assay was carried out in 96-well microtiter plates at 37° C. Reaction mixtures (25 μL) contained a final concentration of 1 µM test compound, 0.5 mg/mL human liver microsomes protein, and 1 mM NADPH and/or 1 mM UDPGA (with alamethicin) in 100 mM potassium phosphate, pH 7.4 buffer with 3 mM MgCl2. At each of the time points (for example, 0, 15, 30, and 60 minutes), 150 μL of quench solution (100% acetonitrile with 0.1% formic acid) with internal standard was transferred to each well. Besides the zero minute controls, mixtures containing the same components except the NADPH were also prepared as the negative control. Verapamil was included as a positive control to verify assay performance. Plates were sealed, vortexed, and centrifuged at 4° C. for 15 minutes at 4000 rpm. The supernatant was transferred to fresh plates for LC/MS/MS analysis. Comparison data for microsome stability of urea compounds described herein versus the corresponding amide compounds are shown in Table 1.

SMILES	Cmax ([1]; rat, plasma, read-out: Cmax) [ng/mL]	half-life [2] [h]	also measured
CNc1cc(Nc2cc(F)cc3c2OCCO3)nc2c(NC(=O)N[C@@H]3C[C@@H]3F)cnn12 [Compound 5, 1-(5-((7-fluoro-2,3-dihydrobenzo[b][1,4]dioxin-5-yl)amino)-7-(methylamino)pyrazolo[1,5-a]pyrimidin-3-yl)-3-((1R,2S)-2-fluorocyclopropyl)urea]	–	–	metabolic stability compared to the corresponding amide compound (Hepatocyte stability; hepatocytes, statement in words): unexpected high metabolic stability; IC50 (IFN-a/Jak1 Tyk2): < 1 µM
CNC(=O)Nc1cnn2c(NC)cc(Nc3cc(C)cc(C)c3)nc12 [drawing 291]	915	–	–
CNC(=O)c1cnn2c(NC)cc(Nc3cc(C)cc(C)c3)nc12 [reference compound]	200	–	–
CNc1cc(Nc2cccc3c2OCCO3)nc2c(NC(=O)NC3CCC3)cnn12 [drawing 289]	–	–	Cmax ([1]; rat plasma): 1,800 ng/mL
CNc1cc(Nc2cc(F)cc3c2OCCO3)nc2c(NC(=O)N[C@@H]3C[C@@H]3F)cnn12 [drawing 279]	–	> 2	–
CNc1cc(Nc2cccc3c2OCCO3)nc2c(NC(=O)NC3CCC3)cnn12 [drawing 287]	–	–	Cmax ([1]; rat plasma): 5,000 ng/mL
CNc1cc(Nc2cc(F)cc3c2OCCO3)nc2c(C(=O)N[C@@H]3C[C@@H]3F)cnn12 [drawing 294, reference compound]	–	–	half-life at 1 μM (Hepatocyte stability): < 1.67 h
CNc1cc(Nc2cc(F)cc3c2OCCO3)nc2c(C(=O)N[C@@H]3C[C@@H]3F)cnn12 [drawing 280, reference compound]	–	1	–
CNC(=O)Nc1cnn2c(NC)cc(Nc3cc(F)cc4c3OCCO4)nc12 [drawing 283]	–	> 2	–
CNc1cc(Nc2cc(F)cc3c2OCCO3)nc2c(NC(=O)N[C@@H]3C[C@@H]3F)cnn12 [drawing 293]	–	–	half-life at 1 μM (Hepatocyte stability): > 6 h

Now from value to compound, other results behind:

Cmax ([1]; rat, plasma, read-out: Cmax) [ng/mL]	half-life [2] [h]	SMILES	also measured
400	–	CNc1cc(Nc2cccc3c2OCCO3)nc2c(C(=O)N[C@@H]3C[C@@H]3F)cnn12 [reference compound]	–
1690	–	CNc1cc(Nc2cccc3c2OCCO3)nc2c(NC(=O)N[C@@H]3C[C@@H]3F)cnn12 [drawing 285]	–
–	> 2	CNc1cc(Nc2cccc3c2OCCO3)nc2c(NC(=O)NC3CC3)cnn12 [drawing 277]	–
–	0.3	CNc1cc(Nc2cccc3c2OCCO3)nc2c(C(=O)NC3CC(O)C3)cnn12 (centres unmarked) [reference compound]	–
400	–	CNc1cc(Nc2cccc3c2OCCO3)nc2c(C(=O)NC3CC3)cnn12 [drawing 290, reference compound]	–
1900	–	CNc1cc(Nc2cccc3c2OCCO3)nc2c(C(=O)NC3CCC3)cnn12 [reference compound]	–
